{"source": "patent US11583494B2", "about": "“Pharmaceutical composition for nasal administration” (MEDILABO RFP, INC., priority 2017, dated 2023)", "key": {"[1]": {"system": "APP OSK mouse", "assay": "Behavior test: space reference memory of mouse, Morris water maze", "type": "in vivo", "conditions": "1 month", "protocol": "(§1) Male APP OSK mice (Tomiyama et al. J Neurosci. 2010; 30:4845-56) aged 11 months were prepared. APP OSK mice weigh about 30 g. The 60 APP OSK mice were classified into five groups A to E, each containing 12 mice. Separately, 12 wild-type mice (non-Tg littermate) of the same age in month were prepared.\n(§2) Administration was performed without anesthesia using a rodent oral sonte for oral administration, a Pipetman (white tip) for nasal administration, and an injection syringe for subcutaneous administration.\nThe behavior test was performed by measuring space reference memory of mouse using a Morris water maze according to the method of Umeda et al. Brain 2016; 139:1568-86."}, "[2]": {"assay": "Impaired liver function: hepatic enzymes AST (GOT) and ALT (GPT) in serum", "type": "in vivo, mouse", "conditions": "1 month", "protocol": "as §1, §2\nBlood was sampled from mice after end of the behavior test, and serum was separated from the blood to prepare a serum sample. Hepatic enzymes AST (GOT) and ALT (GPT) in the serum sample were measured, and the degree of impaired liver function by rifampicin was compared."}, "[3]": {"molecular_target": "T1, Aβ oligomers (Homo sapiens, UniProt P05067, DEL693-693)", "T1 construct": "from tissue; host or cells: brain (hippocampus) of APP OSK transgenic mice", "type": "in vivo, mouse", "protocol": "as §1, §2\nAccording to the procedure described in Umeda et al. Brain 2016; 139:1568-86, Aβ oligomers (Aβ oligomers are considered to cause phosphorylation of tau and reduction in synaptophysin), synaptophysin (marker protein of synapse), and phosphorylated tau were stained by immunohistological staining. For staining Aβ oligomers, 11A1 antibody (available from Immune-Biological laboratories Co., Ltd.) was used, and for staining synaptophysin, SVP-38 antibody (available from Sigma) was used. Mouse monoclonal PHF-1 antibody (anti p-Ser396/404-tau antibody, provided by Dr. Peter Davies, Albert Einstein College of Medicine) was used for staining phosphorylated tau. After staining, Aβ oligomers, synaptophysin, and phosphorylated tau were quantified by using NIH image-J."}, "[4]": {"molecular_target": "T2, Aβ (Homo sapiens, UniProt P05067)", "T2 construct": "Rifampicins have the action of suppressing formation of oligomers of amyloid β, tau, and α synuclein", "assay": "Formation of oligomers in vitro, Aβ", "type": "biochemical"}, "[5]": {"system": "tau", "assay": "Formation of oligomers in vitro, tau", "type": "biochemical"}, "[6]": {"molecular_target": "α synuclein (Homo sapiens, UniProt P37840)", "assay": "Formation of oligomers in vitro, α synuclein", "type": "biochemical"}, "[7]": {"system": "AD model mouse", "assay": "Oral administration to AD model mouse in which Aβ accumulates", "type": "in vivo"}, "[8]": {"system": "FTD model mouse", "assay": "Oral administration to FTD model mouse in which tau accumulates", "type": "in vivo"}}}
{"compound": "CO[C@H]1/C=C/O[C@@]2(C)Oc3c(C)c(O)c4c(O)c(c(/C=N/N5CCN(C)CC5)c(O)c4c3C2=O)NC(=O)/C(C)=C\\C=C\\[C@H](C)[C@H](O)[C@@H](C)[C@@H](O)[C@@H](C)[C@H](OC(C)=O)[C@@H]1C", "note": "[Rifampicin, 3-(4-methylpiperazinyliminomethyl)rifamycin SV]", "values": [{"measurement": "Ameliorating effect on disturbance of memory (FIG. 1)", "setting": "[1]; Example 2: nasal, 0.05 mg/day", "result": "reached to the same level as in wild-type mouse"}, {"measurement": "Ameliorating effect on disturbance of memory compared with oral administration (Comparative Example 1, […])", "setting": "[1]; Example 2: nasal, dosage one-fifth (0.05 mg/day)", "result": "higher than the case of oral administration"}, {"measurement": "Amelioration of disturbance of memory (FIG. 1)", "setting": "[1]; any of oral, nasal and subcutaneous administration, APP OSK mice", "result": "amelioration of disturbance of memory of APP OSK mouse was confirmed"}, {"measurement": "Elevation of AST in comparison with CMC-administered APP OSK mouse", "setting": "[2]; Example 2: nasal, 0.05 mg/day", "result": "Slight elevation"}, {"measurement": "Change of ALT", "setting": "[2]; any administration method (oral, nasal, subcutaneous)", "result": "no significant change was observed"}, {"measurement": "Effect of reducing Aβ oligomers in comparison for the same dosage (FIG. 3)", "setting": "[3]; Example 1: nasal, […], versus oral and subcutaneous […]", "result": "highest"}, {"measurement": "Quantification of Aβ oligomers (FIG. 3)", "setting": "[3]; any of oral (Comparative Example 1), nasal (Example 1, Example 2), subcutaneous (Reference Example 3)", "result": "reduced to at least the same level as that in wild-type mouse"}, {"measurement": "Formation of oligomers of Aβ", "setting": "[4]", "result": "suppresses formation of oligomers"}, {"measurement": "Formation of oligomers of tau", "setting": "[5]", "result": "suppresses formation of oligomers"}, {"measurement": "Formation of oligomers of α synuclein", "setting": "[6]", "result": "suppresses formation of oligomers"}, {"measurement": "Cognitive function of mouse", "setting": "[7]", "result": "recovery of the cognitive function"}, {"measurement": "Cognitive function of mouse", "setting": "[8]", "result": "recovery of the cognitive function"}]}
